From patent US20230265151A1, “GIP/GLP1 CO-AGONIST COMPOUNDS” (priority 2020, published 2023) come the findings set out here.

Where two headings read alike, the source gives them in different places. *1 amine or outer side, *2 acyl side, *3 side chain or, on linkers, in order; H or OH if unused. Where a SMILES comes first, the peptide text is derived from it. Side-chain parts run from the residue outwards. [ ]: non-standard residue; d: D form. The star is where a group is joined. αMePhe(2-F) = C[C@](N)(Cc1ccccc1F)C(=O)O; γGlu = O=C(O)[C@H](CCC(=O)[*:2])N[*:1]; C14 diacid = O=C(O)CCCCCCCCCCCCC(=O)*; εLys = N[C@@H](CCCCN[*:1])C(=O)[*:2]; αMeY = C[C@](N)(Cc1ccc(O)cc1)C(=O)O; 4Pal = N[C@@H](Cc1ccncc1)C(=O)O; αMeL = CC(C)C[C@](C)(N)C(=O)O; Orn = NCCC[C@H](N)C(=O)O; Aib = CC(C)(N)C(=O)O

What all share (format): cell-based
Assay [1] has as its target T1, hGIPR (Homo sapiens, UniProt P48546).
T1 construct: expressed in transfected cells
T1 sequence (P48546 22-466): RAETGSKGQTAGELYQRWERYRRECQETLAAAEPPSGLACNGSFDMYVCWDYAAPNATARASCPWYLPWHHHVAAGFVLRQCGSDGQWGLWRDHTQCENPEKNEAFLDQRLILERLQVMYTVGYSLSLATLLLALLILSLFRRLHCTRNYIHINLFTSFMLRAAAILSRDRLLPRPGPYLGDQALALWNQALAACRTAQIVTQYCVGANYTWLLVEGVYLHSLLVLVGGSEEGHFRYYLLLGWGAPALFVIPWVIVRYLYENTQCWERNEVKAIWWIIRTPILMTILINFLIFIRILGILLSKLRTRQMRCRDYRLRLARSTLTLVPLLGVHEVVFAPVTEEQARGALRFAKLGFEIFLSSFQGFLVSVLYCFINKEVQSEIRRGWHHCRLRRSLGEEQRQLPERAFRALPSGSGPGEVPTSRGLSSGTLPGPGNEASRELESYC
Kind of assay: Functional cAMP formation (HTRF) in HEK-293 clonal cells expressing hGIPR, 0.1% bovine casein, without or with 1.0% human serum albumin. To be noted: for EC50: geometric mean; for Emax: read-out: hGIPR Emax, % ± SEM. Put shortly: (§1)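 Readings of the HTRF 665/620 nm ratio, which falls as cAMP rises, were converted to nM cAMP using a standard curve after 30 min peptide exposure at 37° C.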

The target of assay [2] is T2, hGCGR (Homo sapiens, UniProt P47871).
T2 construct: expressed in transfected cells
T2 sequence (P47871 26-477): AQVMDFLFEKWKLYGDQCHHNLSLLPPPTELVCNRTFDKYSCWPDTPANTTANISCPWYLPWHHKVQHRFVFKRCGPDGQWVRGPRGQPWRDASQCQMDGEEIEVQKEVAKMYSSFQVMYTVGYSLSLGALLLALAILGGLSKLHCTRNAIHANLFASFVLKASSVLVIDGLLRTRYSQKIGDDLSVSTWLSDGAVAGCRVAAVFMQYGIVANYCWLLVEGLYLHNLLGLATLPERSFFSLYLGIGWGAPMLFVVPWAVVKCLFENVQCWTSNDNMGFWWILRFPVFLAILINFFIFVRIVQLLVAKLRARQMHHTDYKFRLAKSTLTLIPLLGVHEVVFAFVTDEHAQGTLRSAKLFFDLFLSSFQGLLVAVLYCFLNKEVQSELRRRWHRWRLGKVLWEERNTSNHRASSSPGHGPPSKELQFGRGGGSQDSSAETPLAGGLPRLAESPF
Kind of assay: Functional cAMP formation (HTRF) in HEK-293 clonal cells expressing hGCGR, 0.1% bovine casein, without or with 1.0% human serum albumin. To be noted: geometric mean. Put shortly: as §1

The target in assay [3] is hGLP-1R (Homo sapiens, UniProt P43220). The assay is described as follows: Functional cAMP formation (HTRF) in HEK-293 clonal cells expressing hGLP-1R, 0.1% bovine casein, without or with 1.0% human serum albumin. Also noted: expressed in transfected cells. As to conditions: for EC50: geometric mean; for Emax: read-out: hGLP-1R Emax, % ± SEM. In short, it runs like this:
as §1

The mark [4] stands for this setting: 0.1% bovine casein and 1.0% human serum albumin, 37° C., read-out: hGIPR EC50, nM (SEM, n).
Setting [5] is: HEK293, 0.1% bovine casein and 1.0% human serum albumin, 37° C., percent of maximal response to GIP(1-42)NH2.
Setting [6] is: cAMP, incubated at 37° C., 0.1% bovine casein (no human serum albumin), read-out: hGIPR EC50, nM (SEM, n).
Setting [7] is: 0.1% bovine casein and 1.0% human serum albumin, 37° C., read-out: hGCGR EC50, nM (SEM, n).
Setting [8] is: cAMP, incubated at 37° C., 0.1% bovine casein (no human serum albumin), read-out: hGCGR EC50, nM (SEM, n).
[9] abbreviates: 0.1% bovine casein and 1.0% human serum albumin, 37° C., read-out: hGLP-1R EC50, nM (SEM, n).
[10] abbreviates: HEK293, 0.1% bovine casein and 1.0% human serum albumin, 37° C., percent of maximal response to GLP-1(7-36)NH2.
Setting [11] is: cAMP, incubated at 37° C., 0.1% bovine casein (no human serum albumin), read-out: hGLP-1R EC50, nM (SEM, n).

Sequence of hGLP-1R (P43220 24-463): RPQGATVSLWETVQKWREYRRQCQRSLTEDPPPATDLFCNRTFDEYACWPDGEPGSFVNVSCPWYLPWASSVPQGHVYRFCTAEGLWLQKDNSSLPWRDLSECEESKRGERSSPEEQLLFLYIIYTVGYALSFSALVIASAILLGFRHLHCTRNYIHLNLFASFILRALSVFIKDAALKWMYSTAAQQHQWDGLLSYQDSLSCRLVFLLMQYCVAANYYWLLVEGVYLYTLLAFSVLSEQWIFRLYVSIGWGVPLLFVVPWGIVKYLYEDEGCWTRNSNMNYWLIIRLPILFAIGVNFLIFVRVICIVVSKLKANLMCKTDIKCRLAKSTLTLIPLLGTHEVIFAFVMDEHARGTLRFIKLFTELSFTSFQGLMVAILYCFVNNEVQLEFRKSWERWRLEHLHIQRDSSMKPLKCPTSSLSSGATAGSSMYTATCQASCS

Take `CC[C@H](C)[C@H](NC(=O)[C@H](CC(C)C)NC(=O)[C@](C)(Cc1ccc(O)cc1)NC(=O)[C@@H](CCC(=O)O)NC(=O)[C@@H](NC(=O)[C@H](Cc1ccccc1)NC(=O)[C@H](CCC(=O)O)NC(=O)C(C)(C)NC(=O)[C@H](CCC(N)=O)NC(=O)[C@H](C)NC(=O)[C@H](CCCCNC(=O)[C@@H](N)CCCCNC(=O)[C@@H](N)CCCCNC(=O)CC[C@H](NC(=O)CCCCCCCCCCCCC(=O)O)C(=O)O)NC(=O)[C@H](CCCN)NC(=O)[C@H](CC(=O)O)NC(=O)[C@H](CC(C)C)NC(=O)[C@](C)(CC(C)C)NC(=O)[C@@H](NC(=O)[C@H](CO)NC(=O)[C@H](Cc1ccncc1)NC(=O)[C@H](CC(=O)O)NC(=O)[C@H](CO)NC(=O)[C@@H](NC(=O)[C@](C)(Cc1ccccc1F)NC(=O)[C@@H](NC(=O)CNC(=O)[C@H](CCC(=O)O)NC(=O)C(C)(C)NC(=O)[C@@H](N)Cc1ccc(O)cc1)[C@@H](C)O)[C@@H](C)O)[C@@H](C)CC)[C@@H](C)CC)C(=O)N[C@@H](CCC(=O)O)C(=O)NCC(=O)NCC(=O)N[C@@H](CCCCNC(=O)[C@@H](N)CCCCNC(=O)[C@@H](N)CCCCNC(=O)CC[C@H](NC(=O)CCCCCCCCCCCCC(=O)O)C(=O)O)C(N)=O` [Example 187] (H-Y[Aib]EGT[αMePhe(2-F)]TSD[4Pal]SI[αMeL]LD[Orn]K([εLys-εLys-γGlu-C14 diacid])AQ[Aib]EFI[dE][αMeY]LIEGGK([εLys-εLys-γGlu-C14 diacid])-NH2; N-terminus assumed): the 50% effective concentration (EC50) in assay [1] (setting [4]) was 0.939 nM; in assay [1] (setting [6]) it was 0.026 nM; in assay [2] (setting [7]) it was > 9950 nM; in assay [2] (setting [8]) it was > 9950 nM; in assay [3] (setting [9]) it was 18 nM; in assay [3] (setting [11]) it was 0.386 nM. Further, the Emax in assay [1] (setting [5]) turned out to be 79.3%; in assay [3] (setting [10]) it was 109%.

In the case of `CCCCCCCCCCCC(=O)N[C@@H](CCC(=O)NCCOCCOCC(=O)NCCOCCOCC(=O)NCCCC[C@H](NC(=O)[C@H](CCCN)NC(=O)[C@H](CC(=O)O)NC(=O)[C@H](CC(C)C)NC(=O)[C@](C)(CC(C)C)NC(=O)[C@@H](NC(=O)[C@H](CO)NC(=O)[C@H](Cc1ccncc1)NC(=O)[C@H](CC(=O)O)NC(=O)[C@H](CO)NC(=O)[C@@H](NC(=O)[C@](C)(Cc1ccccc1F)NC(=O)[C@@H](NC(=O)CNC(=O)[C@H](CCC(=O)O)NC(=O)C(C)(C)NC(=O)[C@@H](N)Cc1ccc(O)cc1)[C@@H](C)O)[C@@H](C)O)[C@@H](C)CC)C(=O)N[C@@H](C)C(=O)N[C@@H](CCC(N)=O)C(=O)NC(C)(C)C(=O)N[C@@H](CCC(=O)O)C(=O)N[C@@H](Cc1ccccc1)C(=O)N[C@H](C(=O)N[C@@H](CCCCNC(=O)COCCOCCNC(=O)COCCOCCNC(=O)CC[C@H](NC(=O)CCCCCCCCCCC)C(=O)O)C(=O)N[C@@](C)(Cc1ccc(O)cc1)C(=O)N[C@@H](CC(C)C)C(=O)N[C@H](C(=O)N[C@@H](CCC(=O)O)C(=O)NCC(=O)NCC(=O)N1CCC[C@H]1C(=O)N[C@@H](CO)C(=O)N[C@@H](CO)C(=O)NCC(=O)N[C@@H](C)C(=O)N1CCC[C@H]1C(=O)N1CCC[C@H]1C(=O)N1CCC[C@H]1C(=O)N[C@@H](CO)C(N)=O)[C@@H](C)CC)[C@@H](C)CC)C(=O)O` [Example 138], the EC50 is 0.0197 nM in assay [1] (hGIPR EC50, nM (SEM, n), cAMP, incubated at 37° C., 0.1% bovine casein (no human serum albumin)); > 9950 nM in assay [2] (hGCGR EC50, nM (SEM, n), cAMP, incubated at 37° C., 0.1% bovine casein (no human serum albumin)); 0.267 nM in assay [3] (hGLP-1R EC50, nM (SEM, n), cAMP, incubated at 37° C., 0.1% bovine casein (no human serum albumin)).

For `CC[C@H](C)[C@H](NC(=O)[C@H](CCCN)NC(=O)[C@H](CC(=O)O)NC(=O)[C@H](CC(C)C)NC(=O)[C@](C)(CC(C)C)NC(=O)[C@@H](NC(=O)C(C)(C)NC(=O)[C@H](Cc1ccc(O)cc1)NC(=O)[C@H](CC(=O)O)NC(=O)[C@H](CO)NC(=O)[C@@H](NC(=O)[C@](C)(Cc1ccccc1F)NC(=O)[C@@H](NC(=O)CNC(=O)[C@H](CCC(=O)O)NC(=O)C(C)(C)NC(=O)[C@@H](N)Cc1ccc(O)cc1)[C@@H](C)O)[C@@H](C)O)[C@@H](C)CC)C(=O)N[C@@H](C)C(=O)N[C@@H](CCC(N)=O)C(=O)NC(C)(C)C(=O)N[C@@H](CCC(=O)O)C(=O)N[C@@H](Cc1ccccc1)C(=O)N[C@H](C(=O)N[C@@H](CCCCNC(=O)COCCOCCNC(=O)COCCOCCNC(=O)CC[C@H](NC(=O)CCCCCCCCCCCCC(=O)O)C(=O)O)C(=O)N[C@@](C)(Cc1ccc(O)cc1)C(=O)N[C@@H](CC(C)C)C(=O)N[C@H](C(=O)N[C@@H](CCCCNC(=O)COCCOCCNC(=O)COCCOCCNC(=O)CC[C@H](NC(=O)CCCCCCCCCCCCC(=O)O)C(=O)O)C(=O)NCC(=O)NCC(=O)N1CCC[C@H]1C(=O)N[C@@H](CO)C(=O)N[C@@H](CO)C(=O)NCC(=O)N[C@@H](C)C(=O)N1CCC[C@H]1C(=O)N1CCC[C@H]1C(=O)N1CCC[C@H]1C(=O)N[C@@H](CO)C(N)=O)[C@@H](C)CC)[C@@H](C)CC` [Example 233], the EC50 in assay [1] (setting [4]) is 6.08 nM; in assay [1] (setting [6]), 0.0269 nM; in assay [2] (setting [7]), > 9950 nM; in assay [2] (setting [8]) it was > 9950 nM; in assay [3] (setting [9]) it was 56.7 nM; in assay [3] (setting [11]), 0.604 nM. Also, the maximum response (Emax) was 91.4% in assay [1] (setting [5]); 105% in assay [1] (HEK293, percent of maximal response to GIP(1-42)NH2, 37° C., 0.1% bovine casein, arithmetic mean); 116% in assay [3] (setting [10]); 111% in assay [3] (HEK293, percent of maximal response to GLP-1(7-36)NH2, 37° C., 0.1% bovine casein, arithmetic mean).

For the compound `CCCC[C@H](NC(=O)[C@H](CC(=O)O)NC(=O)[C@H](CO)NC(=O)[C@@H](NC(=O)[C@](C)(Cc1ccccc1F)NC(=O)[C@@H](NC(=O)CNC(=O)[C@H](CCC(=O)O)NC(=O)C(C)(C)NC(=O)[C@@H](N)Cc1ccc(O)cc1)[C@@H](C)O)[C@@H](C)O)C(=O)N[C@@H](CO)C(=O)N[C@H](C(=O)N[C@@](C)(CC(C)C)C(=O)N[C@@H](CC(C)C)C(=O)N[C@@H](CC(=O)O)C(=O)N[C@@H](CCCN)C(=O)N[C@H](C(=O)N[C@@H](C)C(=O)N[C@@H](CCC(N)=O)C(=O)NC(C)(C)C(=O)N[C@@H](CCC(=O)O)C(=O)N[C@@H](Cc1ccccc1)C(=O)N[C@H](C(=O)N[C@@H](CCCCNC(=O)COCCOCCNC(=O)COCCOCCNC(=O)CC[C@H](NC(=O)CCCCCCCCCCCCC(=O)O)C(=O)O)C(=O)N[C@@](C)(Cc1ccc(O)cc1)C(=O)N[C@@H](CC(C)C)C(=O)N[C@H](C(=O)N[C@@H](CCCCNC(=O)COCCOCCNC(=O)COCCOCCNC(=O)CC[C@H](NC(=O)CCCCCCCCCCCCC(=O)O)C(=O)O)C(=O)NCC(=O)NCC(=O)N1CCC[C@H]1C(=O)N[C@@H](CO)C(=O)N[C@@H](CO)C(=O)NCC(=O)N[C@@H](C)C(=O)N1CCC[C@H]1C(=O)N1CCC[C@H]1C(=O)N1CCC[C@H]1C(=O)N[C@@H](CO)C(N)=O)[C@@H](C)CC)[C@@H](C)CC)[C@@H](C)CC)[C@@H](C)CC` [Example 269], the concentration giving a half-maximal response (EC50) in assay [1] (setting [4]) was 2.65 nM; in assay [2] (setting [7]) it was > 9950 nM; in assay [2] (cAMP, 37° C., 0.1% bovine casein (no human serum albumin), read-out: hGCGR EC50, nM (SEM, n)), > 9950 nM; in assay [3] (cAMP, 37° C., 0.1% bovine casein (no human serum albumin), read-out: hGLP-1R EC50, nM (SEM, n)), 1.72 nM. For the same compound, the Emax in assay [1] (setting [5]) came out at 87.3%; in assay [1] (HEK293, cAMP, 37° C., 0.1% bovine casein, percent of maximal response to GIP(1-42)NH2, arithmetic mean), 95.3%; in assay [3] (setting [10]), 105%; in assay [3] (HEK293, cAMP, 37° C., 0.1% bovine casein, percent of maximal response to GLP-1(7-36)NH2, arithmetic mean), 96.5%.
